The assay has as its system single cell suspensions derived from Myc-CAP (STING^lo) tumors. The assay can be described thus: Ex vivo reconstitution assay, IFNβ ELISA. It counts as cell-based, mouse. Particulars: for IFNβ production within supernatants: ex vivo drug treatment, 36 hours. As to the method:
FIGS. 15A-15E. Differential STING pathway activation within B6-Myc (STING^hi) cell lines and BMDMs relative to Myc-CAP (STING^lo) cells. (15A, 15B) The indicated cancer cell lines and BMDMs were treated with DMXAA (mouse STING agonist) for 1 and 24 hours, respectively, and protein extracts were interrogated for cGAS/STING pathway activation with the indicated antibodies by Western blotting. Supernatants were collected from for IFNβ1 ELISA following 36 hours of treatment with DMXAA (15C, 15D). (15E) Syngeneic Myc-CAP (STING^lo) tumors were processed into single cell suspensions and used for phycoerythrin-based sorting of CD45+ cellular fractions. Equal numbers of cells from these fractions were stimulated with DMXAA. Supernatants were collected at 36 hrs for detection of IFNB1 by ELISA; n=3 independent experiments; Significance/p-values were calculated by one-way Anova (for 15C & 15E) or paired t-test (for 15D); TAM=tumor associated macrophage; s.e.=short exposure; l.e.=long exposure.
FIGS. 29A-29M. PARPi alone induces DNA DSBs, but not apoptosis even in combination with PI3Ki in Myc-CAP (STING^lo) cancer cells; PARPi/PI3Ki combination induces intracellular DNA DSBs and proportionate release of MV surface-associated DNA DSBs from B6-Myc (STINGhi) cancer cells without affecting cellular viability; PARPi/PI3K treatment activates tumor-cell extrinsic cGAS/STING pathway within TAMs in vivo via MV surface-associated DNA DSBs released from tumor cells. Myc-CAP cancer cells were treated with the indicated drugs singly or in combination for 36 hours. (29A) Cells were stained with anti-mouse specific p-γH2AX antibody and a fluorescently labeled secondary antibody for determination of DNA DSBs, which were quantified by confocal microscopy. (29B) Protein extracts from cells in 29A were analyzed for the indicated pharmacodynamic biomarkers by western blotting; (29C) Annexin V-PI staining was done to assess frequency of live cells (Annexin V^− PI^−) following drug treatment. (29D) Ultracentrifugation was utilized to purify microvesicles (MVs) from supernatants in treatment groups in (29A) and associated DNA DSBs was quantified by Nanodrop®. Independent experiments n=2. (29E) Ultracentrifugation was utilized to purify MVs from supernatants in indicated treatment groups in FIG. 17A, and associated DNA DSBs were quantified by Nanodrop®; n=2 independent experiments. (29F) Syngeneic mice were engrafted with Myc-CAP (STING^lo) cells, and tumors were harvested when the tumor volume reached 400 mm^3. Single cell suspensions of the tumors were treated with the indicated drug(s), in the presence or absence of GW4869 (MV biogenesis inhibitor). (29G) Bone marrow derived macrophage (BMDMs) were co-cultured for 30 hours with supernatants (−/+ exogenous 50 units of DNase I pre-treatment for 30 minutes) from Myc-CAP cells that were treated with the indicated drug(s) for 36 hours. (29H) cGAMP (10 μg/mL) was pre-incubated with 10 units of DNAse I or mock control for 30 minutes and then added to BMDMs for 30 hours. (29I-29L) STING^+/+/STING^−/− BMDMs were co-cultured for 36 hours with supernatants from Myc-CAP and B6-Myc cancer cells that were treated with the indicated drug(s) for 36 hours. Supernatants were collected from 29F-29L at the end of treatment and analyzed for IFNβ1 by ELISA. […] Tumor volume was recorded daily for duration of experiment. […] Significance/p-values were calculated by one-way ANOVA. […]
For orientation: ELISA stands for enzyme-linked immunosorbent assay.

With `Cc1ccc2c(=O)c3cccc(CC(=O)O)c3oc2c1C` [DMXAA, 5,6-Dimethylxanthenone-4-acetic Acid], for the setting “ex vivo DMXAA treatment”, the “IFN-β response within the CD45-negative tumor cell fraction” value was “lack of response” and the “fold increase in IFN-β levels within the TME” value is given as 11.4 fold.
On to `Nc1cc(C(F)(F)F)c(-c2cc(N3CCOCC3)nc(N3CCOCC3)n2)cn1` [buparlisib], for which the “IFNβ production within supernatants” value is given as “not observed”.
For `CNCc1ccc(-c2[nH]c3cc(F)cc4c3c2CCNC4=O)cc1` [rucaparib], the “IFNβ production within supernatants” value is “not observed”.

For the origin of these results see patent US20210017607A1, “Methods of Predicting Responsiveness to Cancer Therapies” (The University of Chicago, priority 2019, published 2021).
